According to the supplement of paper PMC4862054:
Values joined by “and” are separate entries in the source; they are usually repeats but may differ in a detail not shown here. Identical values can stand only once.

Experiments:
Conditions in all cases: incubation time: 72 h
CAL-85-1 [1] = test: drug sensitivity score (DSS), CellTiter-Glo (DSS (AUC-based score)); higher = stronger drug effect (viability inhibition or cytotoxicity); extreme values may be limits of the assay
In short: (§1)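 Breast cancer cell lines were seeded in 20 µl suspension into 384-well plates already holding compound and incubated for 72 h. Each compound was tested at 5 concentrations in 10-fold steps across its own 10,000-fold range. Plates were normalised to 0.1 % DMSO and a positive kill control after CellTox Green and then CellTiter-Glo readings. The area under the fitted dose-response curve served as the basis for the drug sensitivity score.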

CAL-120 = test: as above
In short: as §1

HCC1937 = test: as above
In short: as §1

MDA-MB-468 = test: as above
In short: as §1

MCF-10A = test: as above
In short: as §1

HDQ-P1 [2] = test: as above
In short: as §1

DU-4475 [3] = test: as above
In short: as §1

Hs578T = test: as above
In short: as §1

SK-BR-3 = test: as above
In short: as §1

CAL-148 [4] = test: as above
In short: as §1

MDA-MB-436 = test: as above
In short: as §1

HCC1599 = test: as above
In short: as §1

MDA-MB-453 [5] = test: as above
In short: as §1

HCC1143 = test: as above
In short: as §1

BT-549 = test: as above
In short: as §1

CAL-51 [6] = test: as above
In short: as §1

MDA-MB-231 = test: as above
In short: as §1

BT-474 = test: as above
In short: as §1

MFM-223 = test: as above
In short: as §1

CAL-85-1 [7] = test: normalised viability (% of control), CellTiter-Blue; higher = more viable cells (about 100 = DMSO control)
Description: (§2)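 DSRT, CellTiter-Blue viability, 72 h incubation. Signal is normalised to DMSO and benzethonium chloride controls. Value is the normalised response at dose 8.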

HDQ-P1 [8] = test: as above
Description: as §2

DU-4475 [9] = test: as above
Description: as §2

CAL-148 [10] = test: as above
Description: as §2

MDA-MB-453 [11] = test: as above
Description: as §2

CAL-51 [12] = test: as above
Description: as §2

SMILES | drug sensitivity score (CAL-85-1 [1]) | drug sensitivity score (CAL-120) | drug sensitivity score (HCC1937) | drug sensitivity score (MDA-MB-468) | drug sensitivity score (MCF-10A) | drug sensitivity score (HDQ-P1 [2]) | drug sensitivity score (DU-4475 [3]) | drug sensitivity score (Hs578T) | drug sensitivity score (SK-BR-3) | drug sensitivity score (CAL-148 [4]) | drug sensitivity score (MDA-MB-436) | drug sensitivity score (HCC1599) | drug sensitivity score (MDA-MB-453 [5]) | drug sensitivity score (HCC1143) | drug sensitivity score (BT-549) | drug sensitivity score (CAL-51 [6]) | drug sensitivity score (MDA-MB-231) | drug sensitivity score (BT-474) | drug sensitivity score (MFM-223) | normalised viability (CAL-85-1 [7]; 3000 nM) | further results
Nc1ncnc2c1c(COc1cccc(Cl)c1)nn2C1CCOCC1 | 0 | 0 | 0 | 0 | 0 | 0 | 0 | 0 | 0 | 0 | 0 | 0 | 0 | 0 | 0.519 | 0 | 0 | 0 | 0 |  | 
COc1ccc(-c2ccc3c(N4CCOC[C@@H]4C)nc(N4CCOC[C@@H]4C)nc3n2)cc1CO [AZD8055] | 22.2 | 23.8 | 14.9 | 22.2 | 19.3 | 20.9 | 16.5 | 20.2 | 30.3 | 22.8 | 18.9 | 5.62 | 22.2 | 20.2 | 23.9 | 23.4 | 16.8 | 13.7 | 23.8 | 18.6% | normalised viability (HDQ-P1 [8]; 3000 nM): 21.8%; normalised viability (DU-4475 [9]; 3000 nM): 14.1%; normalised viability (CAL-148 [10]; 3000 nM): 5.57%; normalised viability (MDA-MB-453 [11]; 3000 nM): 14.6%; normalised viability (CAL-51 [12]; 3000 nM): 10.5%
C[C@]12CC[C@H](O)CC1=CC[C@@H]1[C@@H]2CC[C@]2(C)C(c3cccnc3)=CC[C@@H]12 [Abiraterone] | 0 | 0 | 0 | 0 | 0 | 0 | 0 | 0 | 0 | 0 | 0 | 0 | 0 | 0 | 0 | 3.91 | 0 | 0 | 0 |  | normalised viability (CAL-85-1 [7]; 1500 nM): 97.5%; normalised viability (HDQ-P1 [8]; 1500 nM): 125%; normalised viability (DU-4475 [9]; 1500 nM): 88.1%; normalised viability (CAL-148 [10]; 1500 nM): 98.1%; normalised viability (MDA-MB-453 [11]; 1500 nM): 96%; normalised viability (CAL-51 [12]; 1500 nM): 106%
CN(C)CCN1C(=O)c2cccc3cc(N)cc(c23)C1=O [Amonafide] | 2.16 | 3.03 | 2.35 | 2.59 | 2.36 | 0 | 5.38 | 2.97 | 3.61 | 4.44 | 2.32 | 0.856 | 0 | 1.61 | 2.93 | 2.87 | 3.06 | 5.06 | 0.47 | 61.9% | normalised viability (HDQ-P1 [8]; 3000 nM): 79.6%; normalised viability (DU-4475 [9]; 3000 nM): 57.9%; normalised viability (CAL-148 [10]; 3000 nM): 32%; normalised viability (MDA-MB-453 [11]; 3000 nM): 68.3%; normalised viability (CAL-51 [12]; 3000 nM): 55.7%
CC(C)(C#N)c1cc(Cn2cncn2)cc(C(C)(C)C#N)c1 [Anastrozole] | 0 | 0 | 0 | 0 | 0 | 0 | 0 | 0 | 0 | 0 | 0 | 0 | 0 | 0 | 0 | 0 | 0 | 0 | 0 | 82.8% | normalised viability (HDQ-P1 [8]; 3000 nM): 85.3%; normalised viability (DU-4475 [9]; 3000 nM): 96.5%; normalised viability (CAL-148 [10]; 3000 nM): 87.2%; normalised viability (MDA-MB-453 [11]; 3000 nM): 103%; normalised viability (CAL-51 [12]; 3000 nM): 108%
CC(C)c1c(C(=O)Nc2ccccc2)c(-c2ccccc2)c(-c2ccc(F)cc2)n1CC[C@@H](O)C[C@@H](O)CC(=O)O [Atorvastatin] | 3.85 | 4.42 | 1 | 4.08 | 7.2 | 5.79 | 0 | 1.59 | 0 | 0 | 0 | 0 | 0.00416 | 1.92 | 0 | 6.03 | 10.1 | 8.43 | 0 |  | 
O=C(O)CCCc1ccc(N(CCCl)CCCl)cc1 [Chlorambucil] | 0 | 0 | 0 | 0 | 0 | 0 | 0 | 0 | 0 | 0 | 0 | 0 | 0 | 0 | 0 | 0 | 0 | 0 | 0 | 97.7% | normalised viability (HDQ-P1 [8]; 3000 nM): 107%; normalised viability (DU-4475 [9]; 3000 nM): 125%; normalised viability (CAL-148 [10]; 3000 nM): 96.7%; normalised viability (MDA-MB-453 [11]; 3000 nM): 108%; normalised viability (CAL-51 [12]; 3000 nM): 115%
Cn1c(=O)n(-c2ccc(C(C)(C)C#N)cc2)c2c3cc(-c4cnc5ccccc5c4)ccc3ncc21 [Dactolisib] | 15.3 | 17.9 | 9.76 | 13.2 | 9.78 | 10.7 | 11.4 | 14.9 | 16.2 | 14.6 | 11.8 | 2.8 | 14.7 | 12.7 | 18.6 | 16.8 | 11.7 | 9.24 | 13.4 |  | 
CO[C@H]1C[C@@H]2CC[C@@H](C)[C@@](O)(O2)C(=O)C(=O)N2CCCC[C@H]2C(=O)O[C@H]([C@H](C)C[C@@H]2CC[C@@H](OCCO)[C@H](OC)C2)CC(=O)[C@H](C)/C=C(\C)[C@@H](O)[C@@H](OC)C(=O)[C@H](C)C[C@H](C)/C=C/C=C/C=C/1C [Everolimus] | 10.6 | 8.8 | 8.95 | 16 | 0 | 3.41 | 6.44 | 9.44 | 12.7 | 13.4 | 5.1 | 0 | 10 | 8.31 | 13 | 9.8 | 0 | 3.02 | 10.8 |  | normalised viability (CAL-85-1 [7]; 300 nM): 57% and 52.9%; normalised viability (HDQ-P1 [8]; 300 nM): 72.9% and 72.6%; normalised viability (DU-4475 [9]; 300 nM): 60.9% and 62.6%; normalised viability (CAL-148 [10]; 300 nM): 39% and 37.2%; normalised viability (MDA-MB-453 [11]; 300 nM): 28.7% and 29.6%; normalised viability (CAL-51 [12]; 300 nM): 40.4% and 43.4%
CCCCCCCCc1ccc(CCC(N)(CO)CO)cc1 [Fingolimod] | 5.32 | 0 | 4.54 | 5.78 | 5.32 | 2.05 | 0 | 0 | 5.36 | 1.1 | 3.56 | 0.954 | 5.2 | 0 | 3.92 | 4.51 | 6.21 | 6.1 | 1.45 | 91.7% | normalised viability (HDQ-P1 [8]; 3000 nM): 95%; normalised viability (DU-4475 [9]; 3000 nM): 117%; normalised viability (CAL-148 [10]; 3000 nM): 88.8%; normalised viability (MDA-MB-453 [11]; 3000 nM): 95.2%; normalised viability (CAL-51 [12]; 3000 nM): 109%
Cc1cc2c(C(C)C)c(O)c(O)c(C=O)c2c(O)c1-c1c(C)cc2c(C(C)C)c(O)c(O)c(C=O)c2c1O [Gossypol] |  |  |  |  |  |  |  |  |  |  |  |  |  |  |  |  |  |  |  |  | normalised viability (CAL-85-1 [7]; 30000 nM): 5.42%; normalised viability (HDQ-P1 [8]; 30000 nM): 4.62%; normalised viability (DU-4475 [9]; 30000 nM): 4.25%; normalised viability (CAL-148 [10]; 30000 nM): 7.03%; normalised viability (MDA-MB-453 [11]; 30000 nM): 5.68%; normalised viability (CAL-51 [12]; 30000 nM): 3.25%
Cc1ccc(NC(=O)c2ccc(CN3CCN(C)CC3)cc2)cc1Nc1nccc(-c2cccnc2)n1 [Imatinib] | 0 | 0 | 0 | 0 | 0 | 0 | 0 | 0 | 0 | 0 | 0 | 0 | 0.32 | 0 | 0 | 1.42 | 0 | 0 | 0 | 96.1% and 95.3% | normalised viability (HDQ-P1 [8]; 3000 nM): 118% and 119%; normalised viability (DU-4475 [9]; 3000 nM): 112% and 116%; normalised viability (CAL-148 [10]; 3000 nM): 102% and 90.9%; normalised viability (MDA-MB-453 [11]; 3000 nM): 86.2% and 83.6%; normalised viability (CAL-51 [12]; 3000 nM): 108% and 98.6%
Nc1nc(OCc2cc(Br)cs2)c2[nH]cnc2n1 [Lomeguatrib] | 0 | 0 | 0 | 0 | 0 | 0 | 0 | 0 | 0 | 0 | 0 | 0 | 0 | 0 | 0 | 0 | 0 | 0 | 0 |  | 
Cn1c(=O)n(-c2ccc(C(C)(C)C#N)cc2)c2c3cc(-c4cnc5ccccc5c4)ccc3ncc21 [NVP-BEZ235] |  |  |  |  |  |  |  |  |  |  |  |  |  |  |  |  |  |  |  |  | normalised viability (CAL-85-1 [7]; 300 nM): 29.5%; normalised viability (HDQ-P1 [8]; 300 nM): 26.5%; normalised viability (DU-4475 [9]; 300 nM): 15.8%; normalised viability (CAL-148 [10]; 300 nM): 10.7%; normalised viability (MDA-MB-453 [11]; 300 nM): 12.6%; normalised viability (CAL-51 [12]; 300 nM): 12.4%
COc1ccccc1S(=O)(=O)Nc1ccc2c(c1)CN(C)C(=O)N2 [PFI-1] | 3.01 | 2.01 | 0 | 0 | 1.98 | 0 | 0.973 | 4.98 | 0 | 0 | 1.33 | 0 | 4.63 | 0 | 5.52 | 3.76 | 1.83 | 0 | 1.13 |  | 
NS(=O)(=O)OC[C@@H]1C[C@@H](n2ccc3c(N[C@H]4CCc5ccccc54)ncnc32)C[C@@H]1O [Pevonedistat] | 11.9 | 7.98 | 2.78 | 17.8 | 0 | 2.51 | 22.5 | 5.18 | 21.7 | 0 | 14.2 | 14 | 3.83 | 8.48 | 15.3 | 22.8 | 6.52 | 7.25 | 9.97 |  | 
